{
  "source": "patent US9730872B2",
  "about": "“Method for improving skin conditions with veratric acid or acceptable salt thereof as an active ingredient” (Bio Spectrum, Inc., priority 2012, dated 2017)",
  "key": {"[1]": {"system": "Human hair follicle dermal papillar cells", "assay": "Proliferation of human hair follicle dermal papilla cells (MTT)", "assay_type": "cell-based", "conditions": "0, 10 and 100 μM, 72 hours, FIG. 1", "protocol": "Human hair follicle dermal papillar cells (Application, Inc., USA) were seeded into a 6-well micro plate containing DMEM medium (Gibco, USA) with FBS at a density of 3×10^5 cells per well, and then were cultured in a 5% CO2 incubator at 37° C. for 24 hours. The next day, the cells were washed once with serum-free medium, and the medium was replaced with serum-free medium. Then, the cells were treated with 0, 10 and 100 μM of veratric acid, followed by incubating for 72 hours, after which the cells were washed once with serum-free medium, the medium was replaced with serum-free medium containing 10% MTT, and after 3 hours, the optical density (O.D.) value was measured and calculated as a percentage of control."}, "[2]": {"system": "insulin-like growth factor-1 (IGF-1)", "assay": "IGF-1 secretion of hair follicle dermal papilla cells (ELISA)", "assay_type": "cell-based, Human", "conditions": "0, 10 and 100 μM, 48 hours; FIG. 2", "protocol": "(§1) Human hair follicle dermal papillar cells (Application, Inc., USA) were seeded into a 24-well micro plate at density of 7.5×10^4 cells per well, and then were cultured in a 5% CO2 incubator at 37° C. for 24 hours. Then, the medium was replaced with serum-free medium, followed by being cultured for 16 hours. Then, each well was treated with 0, 10 and 100 μM of veratric acid, after which the cells were incubated for 48 hours. Then, the cell culture media were collected.\nThe secretion rate of growth factor insulin-like growth factor-1 (IGF-1) was determined by measuring the amount of secretion rate of IGF-1 using Insulin-like growth factor-1 quantikine ELISA kit (DG100, R&D system, USA)."}, "[3]": {"system": "transforming growth factor-beta1 (TGF-beta1)", "assay": "Inhibition of TGF-beta1 production in hair follicle dermal papilla cells (ELISA)", "assay_type": "cell-based, Human", "conditions": "0, 10 and 100 μM, 48 hours; FIG. 3", "protocol": "as §1, with “plate at a density of” for “plate at density of”\nThe secretion rate of transforming growth factor-beta1 (TGF-beta1) was determined by measuring the amount of secretion rate of TGF-beta1 using Human LAP TFG-beta1 ELISA kit (ab100647, abcam, USA)."}, "[4]": {"system": "procollagen type I C-peptide (PICP)", "assay": "Collagen synthesis in human normal fibroblasts (PICP EIA)", "assay_type": "cell-based", "conditions": "0, 1, 10 and 100 μM, 24 hours; FIG. 4", "protocol": "Human normal fibroblasts (Department of Dermatology, Ajou University) were seeded into a 24-well micro plate containing DMEM medium at a density of about 2×10^5 cells per well, and were cultured in a 5% CO2 incubator at 37° C. for 24 hours. Then, the medium was removed from each well of the plate, and each well was treated with 0, 1, 10 and 100 μM concentrations of veratric acid, after which the cells were cultured for 24 hours. Then, the cell medium was collected, thereby preparing samples.\nThe amounts of collagen synthesis in the above-prepared samples was determined by measuring the amount of procollagen type I C-peptide (PICP) using a Procollagen Type I C-peptide EIA kit (MK101; Takara, Kyoto, Japan)."}, "[5]": {"system": "Keratinocyte (HaCaT)", "assay": "UV-preventing effect, cell viability after UVB (MTT), keratinocytes", "assay_type": "cell-based", "conditions": "pretreated 0, 1, 10 and 100 μM 24 hours, UVB 20 mJ/cm^2, 48 hours; FIG. 6", "protocol": "(§2) Keratinocyte (HaCaT) and fibroblast were cultured in DMEM medium containing penicillin-streptomycin and serum. Then, the cells were seeded into a 12-well micro plate at density of about 1×10^5 cells per well, and were cultured in a 5% CO2 incubator at 37° C. until the cells attached about 80% over on well-area. Then, each well was pretreated with 0, 1, 10 and 100 μM of veratric acid, and after 24 hours, the medium was replaced with PBS, and then the cells were irradiated with UV (UVB 20 mJ/cm^2). Then, the UV-irradiated cells were replaced DMEM medium containing penicillin-streptomycin and serum, the cells were incubated for 48 hours. The cell viability was determined by measuring the viability of keratinocyte (HaCaT) and fibroblast using a MTT assay (30-1010K, ATCCTM)."}, "[6]": {"system": "fibroblast", "assay": "UV-preventing effect, cell viability after UVB (MTT), fibroblasts", "assay_type": "cell-based", "conditions": "pretreated 0, 1, 10 and 100 μM 24 hours, UVB 20 mJ/cm^2, 48 hours; FIG. 5", "protocol": "as §2"}, "[7]": {"system": "collagenase (MMP-1)", "assay": "Inhibition of collagenase production in human normal fibroblasts (MMP-1 ELISA)", "assay_type": "cell-based", "conditions": "0, 1, 10 and 100 μM, 24 hours; FIG. 7", "protocol": "Human normal fibroblasts (Department of Dermatology, Ajou University) were seeded into a 24-well micro plate containing DMEM medium at a density of about 2×10^5 cells per well, and were then cultured in a 5% CO2 incubator at 37° C. for 24 hours. Then, the medium was removed from each well, and the cells were treated with 0, 1, 10 and 100 μM concentrations of veratric acid. Then, the cells were cultured for 24 hours, after which the cell culture media were collected, thereby preparing samples.\nThe inhibition effects of collagenase production was determined by measuring the amount of collagenase using MMP-1 ELISA kit (QIA55, Merck, Germany)."}, "[8]": {"system": "human skin", "assay": "Wrinkle-reducing effect of nourishing cream, skin elasticity", "assay_type": "in vivo", "conditions": "face, twice a day, 3 months, scale 0 to 5", "protocol": "Specifically, an aqueous phase including purified water, triethanolamine, and propylene glycol was dissolved by heating to 70° C., and an oily phase including fatty acid, oily components, an emulsifier, and a preservative was dissolved by heating to 70° C. and added to the aqueous phase. Then, the resulting solution was cooled to 45° C., and veratric acid was added with in amounts of 0, 0.01, 0.05 and 1 wt % based on the total weight of the composition and was dispersed, followed by cooling to 30° C.\nIn the measurement of skin elasticity, nourishing creams described in Preparation Example 8-1 was applied to the face of 30 healthy women of 21 to 42 years old twice a day for 3 months. The control group was used nourishing cream containing purified water.\nThe effect on wrinkle reduction was evaluated by measuring a change in skin elasticity. The measurement of skin elasticity was performed with Coutometer SEM 474 (Courage+Khazaka, Cologne, Germany) under the conditions of constant temperature of 24˜26° C. and constant humidity of 38-40%. The evaluation criteria were as follows 0 indicating no improvement in skin elasticity, and 5 indicating improvement in skin elasticity."}, "[9]": {"system": "hairless mice (Skh: HR-1)", "assay": "Wrinkle prevention by oral administration in UV-irradiated hairless mice (skin replicas)", "assay_type": "in vivo", "conditions": "100 mg per kg oral, 5 weeks", "protocol": "In order to measure the wrinkle-preventing effect of veratric acid, 6-7-week-old hairless mice (Skh: HR-1) were divided into a control group, a UV group and a UV/veratric acid group, each consisting of 8 animals, and were bred during the test period. The control group and the UV group were administered orally with 0.5 ml of saline, and the UV/veratric acid group was administered orally with a solution of 100 mg per kg veratric acid in 0.5 ml of saline.\nThe above-prepared samples were administered orally at the same point of time for 5 days a week for a total of 5 weeks. From 2 weeks to 5 weeks after oral administration, the UV group and the UV/veratric acid group were irradiated with UV light three times a week such that the total dose of UV radiation reached 600 mJ/cm^2.\nTo measure the wrinkle-preventing effect of veratric acid, skin replicas were taken from the back of the hairless mice using a silicon polymer before autopsy. In the same manner, after 5 weeks, skin replicas were taken from the groups treated with each of the samples. Using the taken skin replicas, the antiaging effect, i.e., wrinkle-reducing effect of each sample was measured."}, "[10]": {"conditions": "UV/veratric acid group, UV total 600 mJ/cm^2"}},
  "data": [
    {"smiles": "COc1ccc(C(=O)O)cc1OC", "note": "[Veratric acid, 3,4-dimethoxybenzoic acid]", "values": [
      {"measurement": "proliferation of human hair follicle dermal papilla cells (O.D. as percentage of control)", "setting": "[1]", "result": "increased the proliferation of human hair follicle dermal papilla cells in a concentration-dependent manner"},
      {"measurement": "IGF-1 secretion", "setting": "[2]", "result": "increased the IGF-1 secretion of human hair follicle dermal pailla cells in a concentration-dependent manner"},
      {"measurement": "TGF-beta1 production", "setting": "[3]", "result": "excellently inhibited TGF-beta1 production"},
      {"measurement": "collagen synthesis (PICP)", "setting": "[4]", "result": "increased collagen synthesis"},
      {"measurement": "cell death of UV-induced keratinocyte (cell viability)", "setting": "[5]", "result": "prevented cell death"},
      {"measurement": "cell death of UV-induced fibroblasts (cell viability)", "setting": "[6]", "result": "prevented cell death"},
      {"measurement": "collagenase production", "setting": "[7]", "result": "decreased collgenase production in human normal fibroblasts"},
      {"measurement": "Skin elasticity", "setting": "[8]; veratric acid 0.01 wt %", "result": 2.81},
      {"measurement": "Skin elasticity", "setting": "[8]; veratric acid 0.05 wt %", "result": 3.12},
      {"measurement": "Skin elasticity", "setting": "[8]; veratric acid 1 wt %", "result": 3.36},
      {"measurement": "R-parameter value compared to the UV/control groups", "setting": "[9]", "result": "reduced"},
      {"measurement": "R1 value: Skin roughness", "setting": "[9]; [10]", "result": "0.462 ± 0.013"},
      {"measurement": "R2 value: Maximum roughness", "setting": "[9]; [10]", "result": "0.405 ± 0.011"},
      {"measurement": "R3 value: Average roughness", "setting": "[9]; [10]", "result": "0.219 ± 0.012"},
      {"measurement": "R4 value: Smoothness depth", "setting": "[9]; [10]", "result": "0.116 ± 0.010"},
      {"measurement": "R5 value: Arithmetic average roughness", "setting": "[9]; [10]", "result": "0.290 ± 0.013"}
    ]}
  ]
}
